According to PubChem BioAssay (NCI):
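Each compound was tested at five concentrations against cells in 96-well plates for 48 hours. The concentration for 50% growth inhibition is given as GI50. At the TGI there is no net growth.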

Experiments:
Assay in all cases: DTP human tumour cell line panel, 48 h
MCF7 breast = test system: MCF7 breast
SF-539 CNS = test system: SF-539 CNS
PC-3 prostate = test system: PC-3 prostate
SN12C renal = test system: SN12C renal
A498 renal = test system: A498 renal
SNB-75 CNS = test system: SNB-75 CNS
COLO 205 colon = test system: COLO 205 colon
OVCAR-5 ovarian = test system: OVCAR-5 ovarian
CAKI-1 renal = test system: CAKI-1 renal
SR leukemia = test system: SR leukemia

| SMILES | TGI (MCF7 breast) [µM] | TGI (SF-539 CNS) [µM] | TGI (PC-3 prostate) [µM] | TGI (SN12C renal) [µM] | TGI (A498 renal) [µM] | TGI (SNB-75 CNS) [µM] | TGI (COLO 205 colon) [µM] | TGI (OVCAR-5 ovarian) [µM] | TGI (CAKI-1 renal) [µM] | TGI (SR leukemia) [µM] | GI50 (MCF7 breast) [µM] | GI50 (SF-539 CNS) [µM] | GI50 (CAKI-1 renal) [µM] | GI50 (SN12C renal) [µM] | GI50 (SNB-75 CNS) [µM] | GI50 (COLO 205 colon) [µM] | GI50 (SR leukemia) [µM] | GI50 (OVCAR-5 ovarian) [µM] | GI50 (PC-3 prostate) [µM] | GI50 (A498 renal) [µM] |
| --- | --- | --- | --- | --- | --- | --- | --- | --- | --- | --- | --- | --- | --- | --- | --- | --- | --- | --- | --- | --- |
| O=S1(=O)OCc2ccccc21 | > 100 | > 100 | > 100 | > 100 | > 100 | > 100 | > 100 | > 100 | – | – | – | – | – | – | – | – | – | – | – | – |
| CC(C)(C)n1nc(C2CC2)cc1NC(=O)Nc1ccc(Cl)cc1 | > 100 | > 100 | > 100 | > 100 | > 100 | > 100 | > 100 | > 100 | > 100 | – | – | – | – | – | – | – | – | – | – | – |
| CCOC(=O)NC(=O)c1cn(CC(=O)NCC(=O)NCC(=O)N2CCN(CCn3c(C)nc(C(N)=O)c3N)CC2)c(=O)[nH]c1=O | – | > 100 | – | > 100 | > 100 | > 100 | > 100 | – | > 100 | > 100 | – | – | – | – | – | – | – | – | – | – |
| NNC(=O)C(O)C(O)C(O)CO (stereo not drawn) | > 100 | – | > 100 | > 100 | > 100 | > 100 | > 100 | > 100 | > 100 | > 100 | – | – | – | – | – | – | – | – | – | – |
| N#CC1=C(c2ccccc2)NN(Cc2ccccc2)C(c2ccc(Cl)cc2)CC1=O (stereo not drawn) | – | – | – | – | > 100 | 46 | > 100 | > 100 | 76.7 | > 100 | – | – | – | – | – | – | – | – | – | – |
| CN(C)c1ccc(/C=N/NC(=O)CSc2nc3sc4c(c3c(=O)n2-c2ccccc2)CCCCC4)cc1 | > 100 | 25.5 | – | > 100 | – | 14.6 | > 100 | > 100 | > 100 | > 100 | 4.7 | 4.52 | 5.07 | 4.59 | 2.68 | 4.14 | 3 | 6.55 | – | – |
| N=C(N)c1ccc(CS(=O)(=O)F)cc1 | > 100 | > 100 | > 100 | > 100 | – | > 100 | > 100 | > 100 | > 100 | – | > 100 | > 100 | > 100 | > 100 | > 100 | > 100 | – | > 100 | > 100 | – |
| N#Cc1c(N)n(C2OC(CO)C(O)C2O)c2ncnc(N)c12 (stereo not drawn) | 1.21 | 0.417 | 0.578 | 0.856 | – | 3.56 | 0.191 | 3.28 | 0.263 | 0.0474 | – | – | – | – | – | – | – | – | – | – |
| C[C@@]1([C@H](OC(=O)c2cccc3ccccc23)C(N)=O)CO1 | > 100 | 2.33 | 22.8 | 3.95 | 34 | 37.1 | 14.4 | 24.9 | > 100 | – | 1.24 | 0.642 | 5.56 | 0.36 | 5.9 | 2.99 | – | 3.95 | 3.2 | 16.2 |
| CN(Cc1ccccc1)c1ncnc2ccc(Br)cc12 | > 100 | – | 33.4 | 29.6 | 17.1 | – | 38.2 | 31.3 | 17.6 | 38 | 26.4 | – | 4.37 | 15.1 | – | 16.2 | 16.5 | 15.3 | 11.7 | 4.8 |
| COc1ccc(C(=C(C#N)C#N)c2ccc(OC)cc2)cc1 | – | > 100 | – | > 100 | > 100 | – | > 100 | > 100 | > 100 | > 100 | – | – | – | – | – | – | – | – | – | – |
| CC[C@@]1(O)C(=O)OCc2c1cc1n(c2=O)Cc2cc3c([N+](=O)[O-])c(O)ccc3nc2-1 | – | 0.357 | – | 4.77 | 5.66 | 1.12 | 27.3 | 11.6 | 8.47 | < 0.0215 | – | 0.0449 | 0.0864 | 0.057 | 0.151 | 3.56 | – | 0.879 | – | 0.915 |
| COc1cccc(-c2cc(C(=O)Nc3ccc(Cl)cc3)nc(N)n2)c1 | – | > 100 | – | > 100 | > 100 | 68.1 | 71.4 | > 100 | > 100 | > 100 | – | – | – | – | – | – | – | – | – | – |
| O=C1C2=C(C(=O)c3c(O)ccc(O)c31)N(c1cccnc1)Cc1ccccc1O2 | 0.912 | 1.36 | 2.03 | 1.02 | 5.32 | 2.15 | 0.333 | 1.8 | 0.421 | – | 0.191 | 0.378 | 0.103 | 0.312 | 0.615 | 0.102 | – | 0.564 | 0.653 | 2.37 |
| CN(C)C(=O)C(NCCO)c1ccccc1 (stereo not drawn) | > 100 | > 100 | > 100 | > 100 | > 100 | > 100 | > 100 | > 100 | > 100 | – | – | – | – | – | – | – | – | – | – | – |
| NC(N)=NS(=O)(=O)c1ccc(NC(=O)c2cccn3c(=O)c4ccccc4nc23)cc1 | – | > 100 | – | > 100 | > 100 | > 100 | 34 | – | > 100 | 84.3 | – | – | – | – | – | – | – | – | – | – |
| O=C(/C=C/c1ccc[nH]1)c1ccccc1 | – | > 100 | – | > 100 | – | > 100 | > 100 | > 100 | > 100 | > 100 | – | – | – | – | – | – | – | – | – | – |
| CC(C)COC(=O)N1N=NC2C3CC(=O)C(O3)C21 (stereo not drawn) | – | > 100 | – | > 100 | > 100 | > 100 | > 100 | > 100 | > 100 | > 100 | – | – | – | – | – | – | – | – | – | – |
| C=CC1CC12C(=O)C1OC2(C)C2C(=O)c3c(O)cccc3C(=O)C12 (stereo not drawn) | 74.5 | > 100 | 81.5 | > 100 | – | > 100 | > 100 | > 100 | 31.8 | – | 23.2 | 41.6 | 13.1 | 46.8 | 72.4 | 31.7 | – | > 100 | 25.7 | – |
| COc1ccc(-c2cnc(SCC(=O)c3c(C)n(C)n(-c4ccccc4)c3=O)n2-c2ccc(OC)cc2)cc1 | > 50 | > 50 | > 50 | > 50 | – | – | > 50 | > 50 | > 50 | – | 35.3 | > 50 | > 50 | > 50 | – | > 50 | – | > 50 | 40.1 | – |
